The test system of one assay is PAF biosynthesis. The experiment in a line: PAF biosynthesis inhibition (rat spleen microsomes, [3H]acetyl CoA / lyso PAF). It is filed as biochemical. The note with it: 10 μM, incubation 5-8 minutes. The protocol: (1) Product PAF was estimated after reaction by liquid scintillation counting of the dried chloroform phase.
(2) [^3 H]Acetyl Co A was used in place of [^14 C],
(3) Incubation (i.e., reaction) times were generally within the range of 5-8 minutes.
(4) Concentrations used were in 1 ml of reaction mixture as follows:
Rat spleen microisomes: 50-150 μg

Another assay has as its system rabbit platlets. The assay is described as follows: aggregation of rabbit platelets (AC50). It is filed as cell-based. Particulars: Oryctolagus cuniculus, Platelet, 50% aggregation, only compounds structurally similar to PAF, read-out: AC50 (concentration of the test compound to obtain 50% aggregation of rabbit platlets). From the text: The results obtained and the compounds tested are set forth in Table I below wherein "% I" represents percent inhibition and "AC50 " represents the concentration of the test compound to obtain 50% aggregation of rabbit platlets. The AC50 results were obtained only for those compounds which are structurally similar to PAF.

For the compound `CCCCCCCCCCCCCCCCOCC(CO)COP(=O)([O-])OCC[N+](C)(C)C` (stereo not drawn) [Example 17, 2-Hydroxymethyl-2-deoxy-3-O-hexadecylglycero-1-phosphocholine], the “% I (percent inhibition), PAF biosynthesis inhibition” value (“% I (percent inhibition)” below) in the assay with PAF biosynthesis was 20%. Besides, the AC50 in the assay on rabbit platlets came out at 24000 nM. Turning to `CCCCCCCCCCCCCCCCOCC(COC(C)=O)COP(=O)([O-])OCC[N+](C)(C)C` (stereo not drawn) [Example 14, 2-Acetoxymethyl-2-deoxy-3-O-hexadecylglycero-1-phosphocholine], in the assay on PAF biosynthesis, the “% I (percent inhibition)” value was found to be 36%. Further, in the assay with rabbit platlets, the AC50 was 340 nM. As to “Sodium 2-(2-N-hexadecanoylaminoethyl)-2'-(2-methylsulfinylethyl)phosphate [Example 53]”, the “% I (percent inhibition)” value in the assay on PAF biosynthesis is listed as 71%. As to `CCCCCCCCCCCCCCCCOCC(O)(COC(C)=O)COP(=O)([O-])OCC[N+](C)(C)C` (stereo not drawn) [Example 15, 2-Acetoxymethyl-3-O-hexadecylglycero-1-phosphocholine], the “% I (percent inhibition)” value with PAF biosynthesis came out at 71%. Moreover, the AC50 in the assay with rabbit platlets came to 70 nM. Consider “3-Octadecylaminocarbonylaminopropyl-1-phosphorylcholine [Example 52]”, for which the “% I (percent inhibition)” value with PAF biosynthesis stood at 74%.

As to `CCCCCCCCCCCCCCCCOCC(CF)COP(=O)([O-])OCC[N+](C)(C)C` (stereo not drawn) [Example 16, 2-Deoxy-2-fluoromethyl-3-0-hexadecylglycero-1-phosphocholine], the “% I (percent inhibition)” value in the assay with PAF biosynthesis is 30%. The AC50 in the assay on rabbit platlets stood at 2200 nM. `CCCCCCCCCCCCCCCCOCC(C)(O)COP(=O)([O-])OCC[N+](C)(C)C` (stereo not drawn) [Example 12, 3-O-Hexadecyl-2-methylglycero-1-phosphorylcholine]: the AC50 in the assay on rabbit platlets was > 100000 nM.

For “Sodium 2-(2-N-hexadecanoylaminoethyl)-2'-(2 -methylcarbonylaminoethyl)phosphate [Example 46]”, the “% I (percent inhibition)” value in the assay on PAF biosynthesis was found to be 90%.

Take “3-Hexadecylsulfonaminopropyl-1-phosphorylcholine [Example 51]”: in the assay on PAF biosynthesis, the “% I (percent inhibition)” value was found to be 34%.

Turning to `C=C(COCCCCCCCCCCCCCCCC)COP(=O)([O-])OCC[N+](C)(C)C` [Example 13, 2-Hexadecyloxymethyl-2-propene-1-phosphorylcholine], in the assay with PAF biosynthesis, the “% I (percent inhibition)” value is 38%. Further, the AC50 in the assay on rabbit platlets worked out at 1300 nM. In the case of “3-Tetradecycloxycarbonylaminopropyl-2-phosphorylcholine [Example 50]”, the “% I (percent inhibition)” value with PAF biosynthesis is 65%. Consider `CCCCCCCCCCCCCCCCOCC(O)(CO)COP(=O)([O-])OCC[N+](C)(C)C` (stereo not drawn) [Example 18, 2-Hydroxymethyl-3-O-hexadecylglycero-1-phosphocholine], for which the “% I (percent inhibition)” value with PAF biosynthesis is given as 82%. Further, the AC50 in the assay on rabbit platlets was 38000 nM.

Source of the values: patent publication US4761404A, “Phospholipid analogs useful as PAF synthesis inhibitors” (Merck & Co., Inc., priority 1985, dated 1988).
